Experimental data: the CheMixHub viscosity set
± gives the uncertainty stated by the source.

Test: xn = mol fraction of the nth substance listed

`CC(O)C(=O)O` (centres undefined) + CC(C)[C@@H]1CC[C@@H](C)C[C@H]1O showed a viscosity (293.15 K, 100 kPa, x2 = 0.67) of 370.9 ± 21 mPa·s, a viscosity (298.15 K, 100 kPa, x2 = 0.67) of 218.9 ± 11 mPa·s and a viscosity (303.15 K, 100 kPa, x2 = 0.67) of 134.3 ± 6.8 mPa·s. The viscosity (308.15 K, 100 kPa, x2 = 0.67) was 86.53 ± 4.3 mPa·s, the viscosity (313.15 K, 100 kPa, x2 = 0.67) was 58.84 ± 2.9 mPa·s and the viscosity (318.15 K, 100 kPa, x2 = 0.67) was 40.71 ± 2 mPa·s. The viscosity (323.15 K, 100 kPa, x2 = 0.67) was 29.47 ± 1.4 mPa·s.
For `CCc1ccccc1` + CCC(C)=O, the viscosity (298.15 K, 101.33 kPa, x1 = 0.0811) was 0.397 ± 0.004 mPa·s, the viscosity (298.15 K, 101.33 kPa, x1 = 0.1608) was 0.416 ± 0.004 mPa·s and the viscosity (298.15 K, 101.33 kPa, x1 = 0.2397) was 0.433 ± 0.004 mPa·s. It also gave a viscosity (298.15 K, 101.33 kPa, x1 = 0.347) of 0.459 ± 0.004 mPa·s, a viscosity (298.15 K, 101.33 kPa, x1 = 0.4606) of 0.487 ± 0.004 mPa·s and a viscosity (298.15 K, 101.33 kPa, x1 = 0.5818) of 0.516 ± 0.004 mPa·s. The viscosity (298.15 K, 101.33 kPa, x1 = 0.7041) was 0.548 ± 0.005 mPa·s and the viscosity (298.15 K, 101.33 kPa, x1 = 0.8394) was 0.587 ± 0.005 mPa·s.
Compound `Clc1ccccc1` + CCC(C)=O has a viscosity (303.15 K, 101 kPa, x2 = 0.0982) of 0.686 ± 0.004 mPa·s, a viscosity (303.15 K, 101 kPa, x2 = 0.247) of 0.636 ± 0.004 mPa·s and a viscosity (303.15 K, 101 kPa, x2 = 0.3771) of 0.593 ± 0.004 mPa·s. The viscosity (303.15 K, 101 kPa, x2 = 0.5481) was 0.541 ± 0.004 mPa·s, the viscosity (303.15 K, 101 kPa, x2 = 0.6776) was 0.499 ± 0.004 mPa·s and the viscosity (303.15 K, 101 kPa, x2 = 0.8508) was 0.482 ± 0.004 mPa·s.
Compound `COC(C)(C)C` + CCC(C)O has a viscosity (298.15 K, 101 kPa, x1 = 0.0999) of 2.16 ± 0.027 mPa·s, a viscosity (298.15 K, 101 kPa, x1 = 0.1992) of 1.57 ± 0.02 mPa·s and a viscosity (298.15 K, 101 kPa, x1 = 0.2992) of 1.16 ± 0.015 mPa·s. The viscosity (298.15 K, 101 kPa, x1 = 0.3976) was 0.91 ± 0.011 mPa·s, the viscosity (298.15 K, 101 kPa, x1 = 0.503) was 0.725 ± 0.009 mPa·s and the viscosity (298.15 K, 101 kPa, x1 = 0.6017) was 0.609 ± 0.008 mPa·s. It also gave a viscosity (298.15 K, 101 kPa, x1 = 0.6989) of 0.518 ± 0.007 mPa·s, a viscosity (298.15 K, 101 kPa, x1 = 0.7986) of 0.443 ± 0.006 mPa·s and a viscosity (298.15 K, 101 kPa, x1 = 0.8979) of 0.384 ± 0.005 mPa·s.
In the case of `COCCOCCOCCOCCOC` + CCC(C)O, the viscosity (298.15 K, 101 kPa, x1 = 0.0018) is reported as 3.082 ± 0.048 mPa·s, the viscosity (298.15 K, 101 kPa, x1 = 0.0046) is reported as 3.032 ± 0.047 mPa·s and the viscosity (298.15 K, 101 kPa, x1 = 0.0146) is reported as 2.91 ± 0.045 mPa·s. It also gave a viscosity (298.15 K, 101 kPa, x1 = 0.0257) of 2.787 ± 0.043 mPa·s, a viscosity (298.15 K, 101 kPa, x1 = 0.0738) of 2.439 ± 0.038 mPa·s and a viscosity (308.15 K, 101 kPa, x1 = 0.0018) of 2.157 ± 0.034 mPa·s. For the same compound, the viscosity (308.15 K, 101 kPa, x1 = 0.0046) was 2.132 ± 0.034 mPa·s, the viscosity (308.15 K, 101 kPa, x1 = 0.0146) was 2.069 ± 0.032 mPa·s and the viscosity (308.15 K, 101 kPa, x1 = 0.0257) was 2.024 ± 0.032 mPa·s. It also gave a viscosity (308.15 K, 101 kPa, x1 = 0.0738) of 1.834 ± 0.029 mPa·s, a viscosity (308.15 K, 101 kPa, x1 = 0.0988) of 1.777 ± 0.028 mPa·s and a viscosity (318.15 K, 101 kPa, x1 = 0.0018) of 1.554 ± 0.025 mPa·s. For the same compound, the viscosity (318.15 K, 101 kPa, x1 = 0.0046) was 1.544 ± 0.025 mPa·s, the viscosity (318.15 K, 101 kPa, x1 = 0.0146) was 1.515 ± 0.024 mPa·s and the viscosity (318.15 K, 101 kPa, x1 = 0.0257) was 1.493 ± 0.024 mPa·s. The viscosity (318.15 K, 101 kPa, x1 = 0.0738) was 1.408 ± 0.023 mPa·s, the viscosity (318.15 K, 101 kPa, x1 = 0.0988) was 1.368 ± 0.022 mPa·s and the viscosity (318.15 K, 101.3 kPa, x2 = 0.6997) was 1.445 ± 0.017 mPa·s. The viscosity (323.15 K, 101.3 kPa, x2 = 0.5011) was 1.495 ± 0.018 mPa·s.
In the case of `COCCOCCOCCOCCOC` + CCCC(C)O, the viscosity (298.15 K, 101 kPa, x1 = 0.0055) is reported as 3.301 ± 0.058 mPa·s, the viscosity (298.15 K, 101 kPa, x1 = 0.0094) is reported as 3.26 ± 0.057 mPa·s and the viscosity (298.15 K, 101 kPa, x1 = 0.0147) is reported as 3.223 ± 0.057 mPa·s. It also gave a viscosity (298.15 K, 101 kPa, x1 = 0.0256) of 3.071 ± 0.054 mPa·s, a viscosity (298.15 K, 101 kPa, x1 = 0.0397) of 2.91 ± 0.051 mPa·s and a viscosity (298.15 K, 101 kPa, x1 = 0.0606) of 2.75 ± 0.048 mPa·s. For the same compound, the viscosity (298.15 K, 101 kPa, x1 = 0.0791) was 2.641 ± 0.046 mPa·s, the viscosity (298.15 K, 101 kPa, x1 = 0.0929) was 2.58 ± 0.045 mPa·s and the viscosity (298.15 K, 101 kPa, x1 = 0.1008) was 2.55 ± 0.045 mPa·s. The viscosity (308.15 K, 101 kPa, x1 = 0.0055) was 2.291 ± 0.041 mPa·s, the viscosity (308.15 K, 101 kPa, x1 = 0.0094) was 2.274 ± 0.041 mPa·s and the viscosity (308.15 K, 101 kPa, x1 = 0.0147) was 2.25 ± 0.04 mPa·s. The viscosity (308.15 K, 101 kPa, x1 = 0.0256) was 2.203 ± 0.039 mPa·s, the viscosity (308.15 K, 101 kPa, x1 = 0.0397) was 2.117 ± 0.038 mPa·s and the viscosity (308.15 K, 101 kPa, x1 = 0.0606) was 2.046 ± 0.036 mPa·s. For the same compound, the viscosity (308.15 K, 101 kPa, x1 = 0.0791) was 1.977 ± 0.035 mPa·s, the viscosity (308.15 K, 101 kPa, x1 = 0.0929) was 1.94 ± 0.034 mPa·s and the viscosity (308.15 K, 101 kPa, x1 = 0.1008) was 1.91 ± 0.034 mPa·s. For the same compound, the viscosity (318.15 K, 101 kPa, x1 = 0.0055) was 1.658 ± 0.03 mPa·s, the viscosity (318.15 K, 101 kPa, x1 = 0.0094) was 1.638 ± 0.03 mPa·s and the viscosity (318.15 K, 101 kPa, x1 = 0.0147) was 1.631 ± 0.03 mPa·s. It also gave a viscosity (318.15 K, 101 kPa, x1 = 0.0256) of 1.622 ± 0.029 mPa·s, a viscosity (318.15 K, 101 kPa, x1 = 0.0397) of 1.575 ± 0.029 mPa·s and a viscosity (318.15 K, 101 kPa, x1 = 0.0606) of 1.533 ± 0.028 mPa·s. It also gave a viscosity (318.15 K, 101 kPa, x1 = 0.0791) of 1.524 ± 0.027 mPa·s, a viscosity (318.15 K, 101 kPa, x1 = 0.0929) of 1.497 ± 0.027 mPa·s and a viscosity (318.15 K, 101 kPa, x1 = 0.1008) of 1.48 ± 0.027 mPa·s.
With `C=CC(=O)OCC` + CCCCC(C)O the viscosity (298.15 K, 101 kPa, x1 = 0.05505) was 3.659 ± 0.029 mPa·s, the viscosity (298.15 K, 101 kPa, x1 = 0.09982) was 3.336 ± 0.026 mPa·s and the viscosity (298.15 K, 101 kPa, x1 = 0.1555) was 2.973 ± 0.023 mPa·s. It also gave a viscosity (298.15 K, 101 kPa, x1 = 0.1998) of 2.712 ± 0.021 mPa·s, a viscosity (298.15 K, 101 kPa, x1 = 0.2555) of 2.417 ± 0.019 mPa·s and a viscosity (298.15 K, 101 kPa, x1 = 0.2999) of 2.205 ± 0.017 mPa·s. It also gave a viscosity (298.15 K, 101 kPa, x1 = 0.3554) of 1.965 ± 0.015 mPa·s, a viscosity (298.15 K, 101 kPa, x1 = 0.3999) of 1.793 ± 0.014 mPa·s and a viscosity (298.15 K, 101 kPa, x1 = 0.4555) of 1.598 ± 0.013 mPa·s. It also gave a viscosity (298.15 K, 101 kPa, x1 = 0.4999) of 1.458 ± 0.012 mPa·s, a viscosity (298.15 K, 101 kPa, x1 = 0.5556) of 1.299 ± 0.011 mPa·s and a viscosity (298.15 K, 101 kPa, x1 = 0.5999) of 1.185 ± 0.01 mPa·s. The viscosity (298.15 K, 101 kPa, x1 = 0.6554) was 1.056 ± 0.009 mPa·s, the viscosity (298.15 K, 101 kPa, x1 = 0.6995) was 0.964 ± 0.009 mPa·s and the viscosity (298.15 K, 101 kPa, x1 = 0.7554) was 0.859 ± 0.008 mPa·s. For the same compound, the viscosity (298.15 K, 101 kPa, x1 = 0.7999) was 0.783 ± 0.008 mPa·s, the viscosity (298.15 K, 101 kPa, x1 = 0.8555) was 0.698 ± 0.008 mPa·s and the viscosity (298.15 K, 101 kPa, x1 = 0.8999) was 0.637 ± 0.007 mPa·s. For the same compound, the viscosity (298.15 K, 101 kPa, x1 = 0.9555) was 0.568 ± 0.007 mPa·s, the viscosity (308.15 K, 101 kPa, x1 = 0.05505) was 2.636 ± 0.025 mPa·s and the viscosity (308.15 K, 101 kPa, x1 = 0.09982) was 2.426 ± 0.023 mPa·s. For the same compound, the viscosity (308.15 K, 101 kPa, x1 = 0.1555) was 2.188 ± 0.02 mPa·s, the viscosity (308.15 K, 101 kPa, x1 = 0.1998) was 2.015 ± 0.019 mPa·s and the viscosity (308.15 K, 101 kPa, x1 = 0.2555) was 1.817 ± 0.017 mPa·s. For the same compound, the viscosity (308.15 K, 101 kPa, x1 = 0.2999) was 1.673 ± 0.015 mPa·s, the viscosity (308.15 K, 101 kPa, x1 = 0.3554) was 1.509 ± 0.014 mPa·s and the viscosity (308.15 K, 101 kPa, x1 = 0.3999) was 1.389 ± 0.013 mPa·s. It also gave a viscosity (308.15 K, 101 kPa, x1 = 0.4555) of 1.253 ± 0.012 mPa·s, a viscosity (308.15 K, 101 kPa, x1 = 0.4999) of 1.154 ± 0.011 mPa·s and a viscosity (308.15 K, 101 kPa, x1 = 0.5556) of 1.04 ± 0.01 mPa·s. It also gave a viscosity (308.15 K, 101 kPa, x1 = 0.5999) of 0.958 ± 0.009 mPa·s, a viscosity (308.15 K, 101 kPa, x1 = 0.6554) of 0.864 ± 0.009 mPa·s and a viscosity (308.15 K, 101 kPa, x1 = 0.6995) of 0.797 ± 0.008 mPa·s. It also gave a viscosity (308.15 K, 101 kPa, x1 = 0.7554) of 0.718 ± 0.008 mPa·s, a viscosity (308.15 K, 101 kPa, x1 = 0.7999) of 0.661 ± 0.008 mPa·s and a viscosity (308.15 K, 101 kPa, x1 = 0.8555) of 0.596 ± 0.007 mPa·s. For the same compound, the viscosity (308.15 K, 101 kPa, x1 = 0.8999) was 0.549 ± 0.007 mPa·s and the viscosity (308.15 K, 101 kPa, x1 = 0.9555) was 0.495 ± 0.007 mPa·s.
